Source: patent US8841004B2, “Binaphthyl compound and organic light emitting element using the same” (Canon Kabushiki Kaisha, priority 2007, dated 2014)
≈ marks a conversion by molar mass, not a printed value.

assay: Solubility in chlorobenzene heated at 130° C.; assay type: physicochemical
Description: Solubility of Example Compound A-02 in chlorobenzene heated at 130° C. was examined.
Comparative Compound H-2 (Comparative Example 2), Comparative Compound H-3 (Comparative Example 3) and Comparative Compound H-5 (Comparative Example 5) were respectively synthesized and solubility in chlorobenzene was examined in the same manner as in Example 1-(C). The results are shown in Table 3 along with those of Examples 1 to 3.

First: CC1(C)c2ccccc2-c2ccc(-c3ccc4cc(-c5ccc6cc(-c7ccc8c(c7)C(C)(C)c7ccccc7-8)ccc6c5)ccc4c3)cc21 [Comparative Compound H-2]
Second: CC1(C)c2ccccc2-c2ccc(-c3ccc4c(c3)C(C)(C)c3cc(-c5ccc6cc(-c7ccc8ccccc8c7)ccc6c5)ccc3-4)cc21 [Example Compound A-02]
The “Solubility (chlorobenzene, 130° C.)” value of the first is 4.8-fold lower: 3300 µg/mL (≈ 5.17 mM) for the first, 16000 µg/mL (≈ 25 mM) for the second.

Compared with CC1(C)c2cc(-c3ccc4c(c3)C(C)(C)c3cc(-c5ccc6ccccc6c5)ccc3-4)ccc2-c2ccc(-c3ccc4c(c3)C(C)(C)c3cc(-c5ccc6ccccc6c5)ccc3-4)cc21 [Comparative Compound H-5], CC1(C)c2ccccc2-c2ccc(-c3ccc4c(c3)C(C)(C)c3cc(-c5ccc6c(c5)C(C)(C)c5cc(-c7ccc8cc(-c9ccc%10ccccc%10c9)ccc8c7)ccc5-6)ccc3-4)cc21 [Example Compound B-18] is 2.7-fold higher in “Solubility (chlorobenzene, 130° C.)” value: 3500 µg/mL (≈ 4.21 mM) for the first, 9400 µg/mL (≈ 11.3 mM) for the second.

In the case of CC1(C)c2ccccc2-c2ccc(-c3ccc4cc(-c5ccc6cc(-c7ccc8cc(-c9ccc%10c(c9)C(C)(C)c9ccccc9-%10)ccc8c7)ccc6c5)ccc4c3)cc21 [Comparative Compound H-3], the “Solubility (chlorobenzene, 130° C.)” value is reported as “less than 0.6 g/L”.
